The values below come from patent publication US8883010B2, “Polymer composition with phytochemical and dialysis membrane formed from the polymer composition” (The University of Akron, priority 2008, dated 2014).

“Also recorded” adds a separate entry of the source.

Series [1] relates to peripheral blood mononuclear cells (PBMC). Briefly: Cell viability (cytotoxicity) assay with 7-AAD dye and flow cytometry. It is filed as cell-based. The settings on record: pure genistein, 25-500 μg/ml. (In general: A flow cytometer gives signals particle by particle.)
Experimental: Cell viability assays were conducted to determine the effect of unmodified membranes, pure genistein and genistein modified membranes on whole blood. A nucleic acid dye, 7-Amino-actinomycin D (7-AAD), (BD-Via-Probe™ from BD Bioscience, CA) was used as a viability probe, which is based on uptake of 7-AAD. 7-AAD is a nucleic acid dye, which is designed in such a way that it cannot enter live cells. Fresh blood mixed with the dye was used as a negative control, whereas blood incubated with the membrane and/or genistein served as the experimental samples.
To perform the assays, 100 μl of fresh blood was pipetted into separate polypropylene tubes and mixed with 2 ml of ammonium chloride lysis buffer solution (containing 8.26 g ammonium chloride, 1 g potassium bicarbonate, and 0.037 g ethylenediamine-tetraacetic acid dissolved in 1 liter deionized water). The tubes were allowed to stand at room temperature for 10 min during which most of the red blood cells were lysed. The tubes were centrifuged at room temperature for 5 min at 1,800 rpm. […] The cells were resuspended with 500 μl of PBS and the cell suspension was analyzed using a flow cytometer (EPICS® XL-MCL™, Beckman Coulter, Calif., USA) equipped with System II™ software. […] The fluorescence signal from the dead cells was measured on the FL3 red channel (650 nm) with the flow cytometer.
In series [2] the test system is reactive oxygen species (ROS) in neutrophils. Briefly: Modified DHR (dihydrorhodamine) assay of oxygen radical generation in PMA-stimulated whole blood. It counts as cell-based, human. The settings on record: for suppression of ROS levels (in words): pure antioxidant in DMSO, no membrane/polymer, 25-500 μg/ml.
Experimental: In order to determine the effect of membranes and/or genistein on oxygen radical generation, the standard dihydrorhodamine (DHR) assay was modified as follows. The assay consisted of one positive control tube, several sample tubes and one negative control tube. The positive control tube contained 100 μl blood, 25 μl DHR, and 25 μl PMA; the total contents were made up to a total volume of 1 ml with PBS. The effect of oxygen radical generation is tested as follows, using the sample tube containing 100 μl blood, 25 μl DHR, 25 μl PMA and the appropriate sample (for example, unmodified membranes or pure genistein or genistein modified membranes). […] For the assay, two small circular samples (2×0.4 cm^2) were punched out from the cast films and placed inside the test tubes. After adding the membrane, the entire contents were incubated at 37° C. for 3 h (to simulate hemodialysis conditions) while being subjected to continuous shaking. After 3 h of incubation, the membrane samples were removed from the blood and agitated with 1 ml of PBS in order to dislodge the cells that were attached to the membrane. In the case of pure genistein (i.e., no membrane), the samples were prepared by dissolving genistein in DMSO over a wide range of concentration (25-500 μg/ml). The negative control tube contained 100 μl blood, 25 μl DHR, and the sample.
In order to normalize the data obtained from different set of experiments, the following formula was employed to express ROS level in percentage,
where the positive control represent 100% ROS and the negative control represent 0% ROS. The x, y, and z parameters represent the mean fluorescence signal obtained from the positive control, the negative control, and the samples, respectively.

As for `O=c1c(-c2ccc(O)cc2)coc2cc(O)cc(O)c12` [genistein, 5,7-dihydroxy-3-(4-hydroxyphenyl)chromen-4-one], the “cytotoxicity to PBMC” value in series [1] is “non-cytotoxic”. Moreover, the “suppression of ROS levels (in words)” value in series [2] is given as “dose-dependent reduction of ROS level; also recorded: suppress ROS levels significantly; also recorded: Suppression is greater than for Vitamin E”. For the same molecule, the “reduction of the oxygen radicals” value in series [2] (pure genistein in DMSO, no membrane) is “about 50%”.
Turning to Vitamin E, the “suppression of ROS levels (in words)” value in series [2] is reported as “Suppression is greater than for Vitamin E”.
